The term IC50 denotes the concentration that inhibits the measured activity by half. Higher therefore signals lower potency.

Drawing on ChEMBL document CHEMBL1151779, “Exploration of a fundamental substituent effect of alpha-ketoheterocycle enzyme inhibitors: Potent and selective inhibitors of fatty acid amide hydrolase” (Bioorg Med Chem Lett, 2008), this text covers IC50 and Ratio IC50 for seven compounds.

In assay [1] the target is T1, Fatty-acid amide hydrolase 1 (Rattus norvegicus, UniProt P97612).
T1 sequence (P97612 whole entry): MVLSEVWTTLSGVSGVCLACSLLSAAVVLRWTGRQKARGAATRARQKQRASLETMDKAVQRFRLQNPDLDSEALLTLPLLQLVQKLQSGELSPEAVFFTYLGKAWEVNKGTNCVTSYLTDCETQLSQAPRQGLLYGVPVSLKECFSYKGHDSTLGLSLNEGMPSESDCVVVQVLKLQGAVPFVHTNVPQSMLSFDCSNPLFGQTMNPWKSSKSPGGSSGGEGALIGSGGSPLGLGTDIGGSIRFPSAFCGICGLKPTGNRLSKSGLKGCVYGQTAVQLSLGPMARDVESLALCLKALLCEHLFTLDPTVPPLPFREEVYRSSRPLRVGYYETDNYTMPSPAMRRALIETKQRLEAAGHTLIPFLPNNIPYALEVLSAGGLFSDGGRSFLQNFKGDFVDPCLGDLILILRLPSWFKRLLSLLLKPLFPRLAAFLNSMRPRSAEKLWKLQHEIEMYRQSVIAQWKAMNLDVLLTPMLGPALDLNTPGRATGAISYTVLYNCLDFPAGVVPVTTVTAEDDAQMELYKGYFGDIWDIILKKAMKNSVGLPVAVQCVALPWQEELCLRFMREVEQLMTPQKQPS
The assay can be described thus: Inhibition of rat FAAH.

Assay [2] is described as follows: Selectivity ratio of IC50 for KIAA1363 to IC50 for rat FAAH.
The nature of assay [3]: Selectivity ratio of IC50 for TGH to IC50 for rat FAAH.
The target of the next assay is T2, Liver carboxylesterase 1 (Homo sapiens, UniProt P23141).
T2 sequence (P23141 whole entry): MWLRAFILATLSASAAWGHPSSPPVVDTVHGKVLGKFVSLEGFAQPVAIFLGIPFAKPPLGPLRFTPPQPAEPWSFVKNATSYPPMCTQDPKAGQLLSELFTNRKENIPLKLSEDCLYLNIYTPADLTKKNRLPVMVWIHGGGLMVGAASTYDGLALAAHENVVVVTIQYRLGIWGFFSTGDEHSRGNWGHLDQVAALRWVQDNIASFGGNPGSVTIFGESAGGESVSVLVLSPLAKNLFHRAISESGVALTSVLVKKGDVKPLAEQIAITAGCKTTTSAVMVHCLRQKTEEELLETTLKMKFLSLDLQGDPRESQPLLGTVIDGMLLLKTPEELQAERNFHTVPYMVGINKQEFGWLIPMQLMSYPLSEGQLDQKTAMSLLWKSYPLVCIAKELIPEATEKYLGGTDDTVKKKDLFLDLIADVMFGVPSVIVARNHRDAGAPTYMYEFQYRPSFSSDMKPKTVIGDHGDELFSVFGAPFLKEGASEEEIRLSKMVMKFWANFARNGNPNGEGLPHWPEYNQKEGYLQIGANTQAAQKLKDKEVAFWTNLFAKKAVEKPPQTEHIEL
The assay can be described thus: Inhibition of TGH.

In assay [4] the target is T3, Neutral cholesterol ester hydrolase 1 (Homo sapiens, UniProt Q6PIU2).
T3 sequence (Q6PIU2 whole entry): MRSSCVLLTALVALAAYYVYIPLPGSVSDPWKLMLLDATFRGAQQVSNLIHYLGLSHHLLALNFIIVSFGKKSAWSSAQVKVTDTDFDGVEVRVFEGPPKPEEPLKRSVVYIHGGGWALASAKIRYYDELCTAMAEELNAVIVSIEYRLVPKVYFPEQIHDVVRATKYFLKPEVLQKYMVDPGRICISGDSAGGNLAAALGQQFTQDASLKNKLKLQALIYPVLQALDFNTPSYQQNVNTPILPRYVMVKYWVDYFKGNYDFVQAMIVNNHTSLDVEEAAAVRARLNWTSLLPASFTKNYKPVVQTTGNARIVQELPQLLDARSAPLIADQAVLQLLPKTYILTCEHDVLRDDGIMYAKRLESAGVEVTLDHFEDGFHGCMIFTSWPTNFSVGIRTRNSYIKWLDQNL
Description: Inhibition of KIAA1363.

For the compound `O=C(O)c1cnc(C(=O)CCCCCCc2ccccc2)o1`, it took 900 nM to reach half-maximal inhibition in assay [1] (IC50). The Ratio IC50 in assay [2] and in assay [3] was above 100 throughout.

Regarding `O=C(CCCCCCc1ccccc1)c1ncc(C(F)(F)F)o1`, the IC50 in assay [1] came out at 70 nM. Also, the Ratio IC50 in assay [2] is above 1400; in assay [3], 3.

Take `N#Cc1coc(C(=O)CCCCCCc2ccccc2)n1`: the IC50 in assay [1] came out at 20 nM; on Liver carboxylesterase 1 it was 30 nM; in assay [4], 30000 nM. Further, the Ratio IC50 in assay [2] is above 700; in assay [3], 1.5.

Turning to `O=C(CCCCCCc1ccccc1)c1nc(-c2ccccn2)co1`, the IC50 in assay [1] is 30 nM; against Liver carboxylesterase 1, 10000 nM; in assay [4], above 100000 nM. Moreover, the Ratio IC50 in assay [2] was 25; in assay [3], 330.

On to `O=C(O)c1coc(C(=O)CCCCCCc2ccccc2)n1`, for which the half-inhibitory concentration (IC50) in assay [1] was 500 nM; against Liver carboxylesterase 1, 2500 nM; in assay [4], above 100000 nM. Moreover, the results for the Ratio IC50 in assay [2] and in assay [3] were above 3000 and 5, respectively.

For the compound `O=C(CCCCCCc1ccccc1)c1nc(-c2ccncc2)co1`, the IC50 is 140 nM in assay [1], 700 nM against Liver carboxylesterase 1 and above 100000 nM in assay [4]. In addition, the values for the Ratio IC50 in assay [2] and in assay [3] were 1500 and 5, respectively.

As for `O=C(CCCCCCc1ccccc1)c1nc(C(F)(F)F)co1`, the IC50 in assay [1] stood at 400 nM; at Liver carboxylesterase 1, 60 nM; in assay [4], 10000 nM. For the same compound, in assay [2], the Ratio IC50 is above 200.
